Patent US12485114B2, “Materials and methods useful to induce cancer cell death via methuosis or autophagy or a combination thereof” (The University of Toledo, priority 2017, dated 2025)

Assays:
cancer cells [1] = test: Loss of viability and non-apoptotic cell death assessment (nuclei, electron microscopy, annexin, z-VAD-fmk); format: cell-based
Protocol: Cells treated with BAPT-27 lose their viability within 72 h. […] Through electron microscopy there were clearly no signs of apoptosis (i.e., cell shrinkage, nuclear condensation, blebbing) seen.

[2] = system: resistant colon cancer cell lines S1M180; test: Reversal of multidrug resistance, combined with mitoxantrone; format: cell-based
Description: (§1) The cells became sensitive to the cytotoxicity of mitoxantrone when combined with BAPT-27. Further, BAPT-27 induced death in apoptosis resistant cell lines including colon cancer cell lines that are missing important pro-apoptotic genes Bax and Bak using well established models (HCT116, HCT116 Bax −/−, HCT116 Bak −/−, HCT116 Bax/Bak−/−). Accordingly, BAPT-27 represents a family of compounds that induce cell death in sensitive and resistant cancers, as well as those cancers that are refractory to death by conventional apoptosis inducing anticancer agents.
(§2) (FIG. 46). NSCLC cells resistant to apoptosis are also sensitive to the activities of BAPT-27.

[3] = system: resistant lung cancer cell lines H460-MX20; test: as above; format: cell-based
Description: as §1, §2

[4] = system: HCT116, HCT116 Bax −/−, HCT116 Bak −/−, HCT116 Bax/Bak−/−; test: Death in apoptosis resistant colon cancer cell lines; format: cell-based; details: cell lines missing pro-apoptotic genes Bax and Bak
Description: as §1

cancer cells [5] = test: Vacuoles formation and cell death with necroptosis inhibitor necrostatin-1; format: cell-based; details: necrostatin-1 up to 30 μM
Protocol: BAPT-27 induces a type of death that is also independent of necrosis or necroptosis. The vacuoles formation and cell death was not inhibited by the addition of necrostatin-1, a necroptosis inhibitor, even at high concentrations (up to 30 μM).
BAPT-27 induces a type of death that is independent of necrosis or necroptosis. The vacuoles formation and cell death was not inhibited by the addition of necrostatin-1, a necroptosis inhibitor, even at high concentrations (up to 30 μM). (FIG. 44).

[6] = system: HCT116 colon cancer cells; test: Colony formation assay; format: cell-based
Protocol: The cytotoxic efficacy of BAPT-27 was also confirmed by colony formation assay. Colony formation assay was used to determine the long-term capacities of the compound to inhibit cell proliferation and viability. The cells were treated for 2 or 3 days and allowed to grow in compound free medium for up to two weeks. […] It was also observed that a higher concentration of BAPT-27 was needed to reduce the colony formation at 48 h compared to longer treatment (72 h). (FIG. 28A).
The cells were treated for 2 or 3 days and allowed to grow in compound free medium for up to two weeks. […] The number of colonies formed/concentration at each time point is shown in the bar graph in FIG. 28B.

[7] = system: normal epithelial colon cells (CRL-1459); test: Morphological assessment of vacuolization in normal cells; format: cell-based; details: CRL-1459 normal cells
Description: The methuophagy inducing activities of BAPT-27 were also prominent in different colon cancer cell lines with different genetic profiles. […] (FIG. 42). However, the vacuoles formation was not prominent in normal epithelial colon cells (CRL-1459). (FIG. 42).

β-tubulin = β-tubulin expression and microtubules dynamics; format: cell-based; design: β-tubulin expression levels: dose or concentration left out as unconfirmed
HCT-116 cells = test: 3D transmission electron tomography of lysosomes; format: cell-based
Description: The 3D reconstruction was loaded into the Avizo 3D Visualization software to reveal lysosomal structure through volume rendering and segmentation. FIGS. 50B-50C show increased autophagic vesicles (yellow) and increased lysosomal cargo (green).
(FIG. 50A & FIG. 50B & FIG. 50C).

TFEB-mTOR pathway = test: mTOR, Beclin-1 and LC3B-II autophagy related markers; format: cell-based
Description: Autophagosome and lysosomal homeostasis is governed by transcription factor EB (TFEB)—mTOR signaling pathways (TFEB-mTOR pathway). […] (FIG. 51A & FIG. 51B & FIG. 51C).

zebrafish = test: Safety in zebrafish; format: in vivo; details: 100 μM
Protocol: The safety of BAPT-27 was studied in zebrafish. BAPT-27 is safe in zebrafish even at a very high concentration of 100 μM. The fish were healthy with no changes in their morphology, swim positions, or their cardiac parameters. (FIG. 52).

C57BL/6 mice = test: Safety studies in C57BL/6 mice; format: in vivo
Protocol: FIG. 53A: C57BL/6J mice (8-10 weeks old) were treated intraperitoneally with indicated concentration of BAPT-27 or vehicle (saline) for 14 days. At the end of 14 days, blood was collected in heparin-coated tubes for blood chemistry analysis using abaxis veterinary chemistry analyzer (VETSCAN vs2).
FIG. 53B: Representative immunohistochemical slides are shown for kidney, liver, heart and brain for C57BL/6mice treated intraperitoneally with vehicle (saline) or BAPT-27 at 86.6 mg/kg. The whole tissue section and 10× magnification slides are shown.

[8] = cells became sensitive to mitoxantrone in combination

## Sc1nnc(-c2ccncc2)n1/N=C/c1c[nH]c2ccccc12 [BAPT-27, 4-(((1H-Indol-3-Yl)Methylene)Amino)-5-(Pyridin-4-Yl)-4H-1,2,4-Triazole-3-Thiol]
Cancer cells [1]
  alteration in the intrinsic apoptotic pathways (proapoptotic and antiapoptotic proteins): no alteration
  annexin fluorescence: not changed
  apoptotic changes of nuclei (chromatin condensation or DNA fragmentation): no apoptotic changes
  protection from death by pan-caspase inhibitor z-VAD-fmk: did not protect the cells from death
Cancer cells [1]; cells treated with BAPT-27
  time to loss of viability: ≤ 72 h
Cancer cells [1]; electron microscopy, very high concentration
  cells observed to have died through apoptosis: one in 100 cells
Cancer cells [1]; z-VAD 100 μM, BAPT-27 10 μM, 24 h and 72 hr
  block of vacuoles formation by z-VAD: does not block
[2]
  delivery and sensitivity of doxorubicin and mitoxantrone: increase the delivery and enhanced sensitivity
[2]; [8]
  reversal of multidrug resistance: reversed multidrug resistance
[3]
  delivery and sensitivity of doxorubicin and mitoxantrone: increase the delivery and enhanced sensitivity
[3]; [8]
  reversal of multidrug resistance: reversed multidrug resistance
[4]
  cell death in apoptosis resistant cell lines: induced death
Cancer cells [5]
  inhibition of vacuoles formation and cell death by necrostatin-1: not inhibited
[6]; HCT116, 48 h and 72 h, especially after 72 h treatment
  colonies number and size: significant inhibition in the colonies number and size
[6]; treated two and three days, then compound free medium up to two weeks
  colony formation: significantly inhibited colony formation
[7]
  vacuoles formation: not prominent
β-tubulin
  β-tubulin expression levels: no significant change
β-tubulin; 24 h
  microtubules dynamics: significant disturbance
HCT-116 cells
  autophagic vesicles and lysosomal cargo: increased autophagic vesicles and increased lysosomal cargo
  lysosomal size: significant increase in lysosomal size
TFEB-mTOR pathway
  Beclin-1 level: increased
  LC3B-II level: increased
  mTOR level: significantly downregulated
zebrafish
  changes in morphology, swim positions, or cardiac parameters: no changes
  safety in zebrafish: safe
C57BL/6 mice; 86.6 mg/kg given intraperitoneally
  safety in mice: safe
C57BL/6 mice; up to 14 days
  behavioral or phenotypic toxicity: no behavioral or phenotypic toxicity
